Read-outs that look alike come from different tables or passages of the source.
How the values were obtained:
[1] = Microsomal stability, human liver microsomes (predicted hepatic clearance); conditions: predicted from in vitro microsomal stability data
GLP-1R = GLP-1R (Homo sapiens, UniProt P43220); assay: GLP-1R activation: cAMP increase in CHO cells stably expressing GLP-1R; format: cell-based; conditions: read-out: EC50
[2] = cAMP increase, CHO cells stably expressing GLP-1R, 10 point dose response, 30 minutes incubation

Chain of GLP-1R (P43220 24-463): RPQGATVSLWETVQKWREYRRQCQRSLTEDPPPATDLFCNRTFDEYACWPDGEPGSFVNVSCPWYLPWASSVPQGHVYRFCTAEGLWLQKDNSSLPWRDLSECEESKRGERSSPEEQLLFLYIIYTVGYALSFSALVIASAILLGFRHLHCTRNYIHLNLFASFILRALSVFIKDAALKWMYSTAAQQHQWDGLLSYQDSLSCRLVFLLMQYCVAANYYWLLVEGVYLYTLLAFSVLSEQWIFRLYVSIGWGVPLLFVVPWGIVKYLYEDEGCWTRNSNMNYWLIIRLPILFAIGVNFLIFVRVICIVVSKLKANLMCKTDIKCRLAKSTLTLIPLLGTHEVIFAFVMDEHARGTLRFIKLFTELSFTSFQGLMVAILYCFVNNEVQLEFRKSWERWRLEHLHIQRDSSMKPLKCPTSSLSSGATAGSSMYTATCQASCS

Row | SMILES | Predicted Hepatic Clearance (Pred. Cl.) [1] [mL/min/kg] | EC50 (GLP-1R; [2]) [nM] | EC50 (GLP-1R) [nM]
1 | N#Cc1ccc(COc2cccc(-c3ccc(Cc4nc5ccc(C(=O)O)cc5n4CC4(C5CC5)CC4)c(F)c3)n2)c(F)c1 [Example 293, 1-([1,1′-bi(cyclopropan)]-1-ylmethyl)-2-(4-(6-((4-cyano-2-fluorobenzyl)oxy)pyridin-2-yl)-2-fluorobenzyl)-1H-benzo[d]imidazole-6-carboxylic acid] | <1.83 | 3.13 | –
2 | COCCn1c(Cc2ccc(-c3cccc(OCc4ccc(C#N)cc4F)n3)s2)nc2ccc(C(=O)O)cc21 [Example 4, 2-((5-(6-((4-cyano-2-fluorobenzyl)oxy)pyridin-2-yl)thiophen-2-yl)methyl)-1-(2-methoxyethyl)-1H-benzo[d]imidazole-6-carboxylic acid] | 13.7 | 1570 | –
3 | COCCn1c(Cc2c(F)cc(-c3cccnc3OC(C)c3ccc(Cl)cc3F)cc2F)nc2ccc(C(=O)O)cc21 (stereo not shown) [Example 372, 2-(4-(2-(1-(4-chloro-2-fluorophenyl)ethoxy)pyridin-3-yl)-2,6-difluorobenzyl)-1-(2-methoxyethyl)-1H-benzo[d]imidazole-6-carboxylic acid] | 7.83 | 243 | –
4 | N#Cc1ccc(COc2cccc(-c3cc(F)c(Cc4nc5c(F)cc(C(=O)O)cc5n4C[C@@H]4CCO4)cc3F)n2)cn1 [Example 659] | 3.5 | 0.17 | –
5 | N#Cc1ccc(COc2cccc(-c3ccc(Cc4nc5ccc(C(=O)O)cc5n4Cc4cncn4C4CC4)c(F)c3)n2)c(F)c1 [Example 7, 2-(4-(6-((4-cyano-2-fluorobenzyl)oxy)pyridin-2-yl)-2-fluorobenzyl)-1-((1-cyclopropyl-1H-imidazol-5-yl)methyl)-1H-benzo[d]imidazole-6-carboxylic acid] | 5.17 | 6.34 | –
6 | CCn1c(Cc2ccc(-c3cccc(OCc4ccc(C#N)cc4F)n3)cc2F)nc2ccc(C(=O)O)cc21 [Example 242, 2-(4-(6-((4-cyano-2-fluorobenzyl)oxy)pyridin-2-yl)-2-fluorobenzyl)-1-ethyl-1H-benzo[d]imidazole-6-carboxylic acid] | <1.83 | 18.4 | –
7 | O=C(O)c1ccc2nc(Cc3cc(F)c(-c4nc(OCc5ccc(C(F)F)cc5F)ncc4F)cc3F)n(C[C@@H]3CCO3)c2c1 [Example 877] | 7.17 | 0.51 | –
8 | CC(C)(Cn1c(Cc2ccc(-c3cccc(OCc4ccc(C#N)cc4F)n3)cc2F)nc2ccc(C(=O)NS(=O)(=O)C3CC3)cc21)C(F)F [Example 52, 2-(4-(6-((4-cyano-2-fluorobenzyl)oxy)pyridin-2-yl)-2-fluorobenzyl)-N-(cyclopropylsulfonyl)-1-(3,3-difluoro-2,2-dimethylpropyl)-1H-benzo[d]imidazole-6-carboxamide] | <1.83 | 56 | –
9 | O=C(O)c1ccc2nc(Cc3ccc(-c4cccc(OCc5ccc(C(F)F)cc5F)n4)cc3F)n(CC34CC(CO3)C4)c2c1 [Example 647] | 3.5 | 3.02 | –
10 | CC(=O)N1CC2CC1(Cn1c(Cc3cc(F)c(-c4cccc(OCc5ccc(C#N)cc5F)n4)cc3F)nc3ccc(C(=O)O)cc31)C2 [Example 849, 1-((2-acetyl-2-azabicyclo[2.1.1]hexan-1-yl)methyl)-2-(4-(6-((4-cyano-2-fluorobenzyl)oxy)pyridin-2-yl)-2,5-difluorobenzyl)-1H-benzo[d]imidazole-6-carboxylic acid] | 5.33 | – | 14.2
11 | COCCn1c(Cc2c(F)cc(-c3cccc(OCc4ccc(Cl)nc4)n3)cc2F)nc2ccc(C(=O)O)cc21 [Example 654] | 3.5 | 24.9 | –
12 | N#Cc1ccc(COc2cccc(-c3cc(F)c(Cc4nc5ccc(C(=O)O)cc5n4CC45CC(C#N)(CO4)C5)cc3F)n2)c(F)c1 [Example 575, 2-(4-(6-((4-cyano-2-fluorobenzyl)oxy)pyridin-2-yl)-2,5-difluorobenzyl)-1-((4-cyano-2-oxabicyclo[2.1.1]hexan-1-yl)methyl)-1H-benzo[d]imidazole-6-carboxylic acid] | 8.67 | 37.2 | –
13 | N#Cc1ccc(COc2nccc(-c3cc(F)c(Cc4nc5ccc(C(=O)O)nc5n4CC4(CF)CC4)cc3F)n2)c(F)c1 [Example 106, 2-(4-(2-((4-cyano-2-fluorobenzyl)oxy)pyrimidin-4-yl)-2,5-difluorobenzyl)-3-((1-(fluoromethyl)cyclopropyl)methyl)-3H-imidazo[4,5-b]pyridine-5-carboxylic acid] | <1.83 | 1.5 | –
14 | CC1(C)CC(Cn2c(Cc3ccc(-c4cccc(OCc5ccc(C#N)cc5F)n4)cc3F)nc3ccc(C(=O)O)cc32)O1 (stereo not shown) [Example 263, 2-(4-(6-((4-cyano-2-fluorobenzyl)oxy)pyridin-2-yl)-2-fluorobenzyl)-1-((4,4-dimethyloxetan-2-yl)methyl)-1H-benzo[d]imidazole-6-carboxylic acid] | 7 | 91.7 | –
15 | CCn1cncc1Cn1c(Cc2ccc(-c3cccc(OCc4ccc(C#N)cc4F)n3)cc2C#N)nc2ccc(C(=O)O)cc21 [Example 522, 2-(2-cyano-4-(6-((4-cyano-2-fluorobenzyl)oxy)pyridin-2-yl)benzyl)-1-((1-ethyl-1H-imidazol-5-yl)methyl)-1H-benzo[d]imidazole-carboxylic acid] | <1.83 | 137 | –
16 | COCCn1c(Cc2cc(F)c(-c3ncc(F)c(OCc4ccc(C#N)cc4F)n3)cc2F)nc2ccc(C(=O)O)cc21 [Example 160, 2-(4-(4-((4-cyano-2-fluorobenzyl)oxy)-5-fluoropyrimidin-2-yl)-2,5-difluorobenzyl)-1-(2-methoxyethyl)-1H-benzo[d]imidazole-6-carboxylic acid] | 5 | 10.2 | –
17 | N#Cc1ccc(COc2cccc(-c3ccc(Cc4nc5ccc(C(=O)O)cc5n4CCCF)c(F)c3)n2)c(F)c1 [Example 379, 2-(4-(6-((4-cyano-2-fluorobenzyl)oxy)pyridin-2-yl)-2-fluorobenzyl)-1-(3-fluoropropyl)-1H-benzo[d]imidazole-6-carboxylic acid] | 3.5 | 2.8 | –
18 | COCCn1c(Cc2cc(F)c(-c3nc(OCc4ccc(C(F)F)cc4F)ccc3F)cc2F)nc2ccc(C(=O)O)cc21 [Example 661] | 4 | 1.95 | –
19 | N#Cc1ccc(COc2nc(-c3ccc(Cc4nc5c(F)cc(C(=O)O)cc5n4C[C@@H]4CCO4)c(F)c3)ccc2F)c(F)c1 [Example 132, (S)-2-(4-(6-((4-cyano-2-fluorobenzyl)oxy)-5-fluoropyridin-2-yl)-2-fluorobenzyl)-4-fluoro-1-(oxetan-2-ylmethyl)-1H-benzo[d]imidazole-6-carboxylic acid] | 3.58 | 0.05 | –
20 | COC1(Cn2c(Cc3cc(F)c(-c4cccc(OCc5ccc(C#N)cc5F)n4)cc3F)nc3ccc(C(=O)O)cc32)CCOC1 (stereo not shown) [Example 627] | 7.83 | 2.19 | –
